Read-outs that look alike come from different tables or passages of the source.
Key:
[1] = tested on: T1, human CMG helicase (hCMG); conditions: role: substrate, cited from earlier work
T1 construct: made in house; host or cells: High Five insect cells, baculovirus (11 viruses co-infected)

[2] = tested on: T1, human CMG helicase (hCMG); assay: hCMG helicase fork-unwinding (strand displacement) assay; assay type: biochemical
Protocol: (§1) The human CMG helicase was purified following the established and validated protocol of Hurwitz and colleagues(19,20), with minor modifications. A detailed description of the approach is shown here, to allow for comparisons to the methods described by the Hurwitz group.
(§2) High Five insect cells (2-3 million cells/ml, 1.5 L), were in cultured in a shaking incubator at 27° C. in suspension with ESF921 serum free medium (Expression Systems, CA; cat. #96-001-01), then co-infected for 60 hrs with 11 baculoviruses expressing human 6His2Flag-Cdc45, the human MCM hexamer (Mcm2, Mcm3, Mcm4, Mem5, Mcm6, Mcm7), and human GINS (GST-Sld5, Psf3, Psf2, and Psf1). Each virus was infected at an MOI of ~10 from individual virus stocks. Infected cells were harvested by centrifugation at 650×g for 5 min at 4° C., washed with cold PBS, frozen on dry ice, and stored at −80° C. until use. The cell pellet (~20 mL) was thawed on ice, resuspended in 45 ml Hypotonic Buffer [20 mM Hepes-NaOH (pH 7.5), 5 mM KCl, 1.5 mM MgCl2] with protease inhibitors (1 mM [COMPOUND LEFT OUT], 1 mM Benzamidine, 0.15 μM Aprotinin, 4 μM Leupeptin, and 1 μM Antipain), and kept on ice for 10 min before lysing by Dounce homogenization (tight fitting, 60 strokes). The cell extract was adjusted to 0.42 M potassium acetate and centrifuged at 43,000×g for 1 hr at 4° C. The cleared lysate was mixed with 0.75 ml glutathione beads (cat. #17-0756-05; GE Healthcare) pre-equilibrated with FEQ buffer [20 mM Hepes-NaOH (pH 7.5), 0.42 M potassium acetate, 5 mM KCl, 1.5 mM MgCl2] and incubated by rotation at 4° C. overnight. Following centrifugation at 290×g at 4° C., the bound glutathione beads were washed four times (15 min each wash) with 40 ml of FW buffer [20 mM Hepes-NaOH (pH 7.5), 0.42 M potassium acetate, 1 mM DTT, 1 mM EDTA, 0.01% NP40, 10% glycerol (vol/vol) with protease inhibitors as above] containing protease inhibitors (as above). Bound proteins were eluted at 4° C. three times (1 hr each elution) with 3.5 ml Q buffer [20 mM Hepes-NaOH (pH 7.5), 1 mM DTT, 1 mM EDTA, 0.01% NP40, 10% glycerol (vol/vol), and protease inhibitors as above] containing 0.15 M potassium acetate and 20 mM reduced glutathione. The eluted fractions were combined and applied to a HiTrap Q-Sepharose FF column (HiTrap Q FF 1 mL, cat. #17505301, Cytiva), pre-equilibrated 3× with 5 ml of Q buffer containing 0.15 M, 0.75 M, 0.15M potassium acetate, in sequence. The Q-Sepharose FF column was washed with 10 ml of FW buffer containing protease inhibitors (as above). The proteins were eluted with 10 ml of Q buffer containing 0.75 M potassium acetate. The eluted fraction was mixed with 0.15 ml of anti-Flag M2 affinity gel/beads and incubated while rotating at 4° C. overnight. After centrifugation at 290×g for 5 min at 4° C., the beads were washed three times with 10 ml PreScission buffer [50 mM Tris-HCl (pH 7.5), 0.15 M NaCl, 1 mM DTT, 1 mM EDTA] for 15 min at 4° C., and eluted at 4° C. three times (1 hr each elution) with 0.2 ml PreScission enzyme buffer containing 0.2 mg/ml 3×-Flag peptides. The combined eluates were incubated with 20 Units of PreScission Protease (GE Healthcare) and 0.1 mL glutathione beads for 4 hr at 4° C. The supernatant was layered onto a 15-40% glycerol gradient [25 mM Tris-HCl (pH 7.5), 50 mM NaCl, 1 mM DTT, 1 mM EDTA, 0.01% NP40, protease inhibitors as above] in a 5 mL ultra-centrifugation tube and centrifuged at 260,000×g for 14 hr at 4° C. Glycerol fractions (0.15 mL each fraction) were collected from bottom of tube and stored at −80° C. until use. Typically, fractions 6-9 contained complete hCMG (~750-800 kDa) and co-migrated with thyroglobulin.
(§3) Helicase fork-unwinding assays were performed at 37° C. for 1 hr in 20 μL reaction volumes using 2-4 μl of hCMG (~15-30 fmol), in a buffer consisting of 25 mM Hepes-NaOH (pH 7.5), 5 mM NaCl, 0.5 mM ATP, 10 mM magnesium acetate, 1 mM DTT, 0.1 mg/ml bovine serum albumin (BSA), and ~10 fmol of radiolabeled DNA forks (20). […]

[3] = tested on: Cdk1 and Cdk2 targets (Rb, Cdc6, PP1a); assay: Immunoblot of Cdk1/Cdk2-dependent targets, HaCaT cells; assay type: cell-based, human; conditions: extended exposure (18 hrs)
Protocol: Immunoblots of total proteins from synchronized HaCaT cells treated with compounds at time of release (0 hr; beginning of G1 phase) and collected after 18 hrs of exposure. (FIG. 5A) DDK-dependent phosphorylation sites on Mcm2 were analyzed with phospho-specific antibodies. (FIG. 5B) Cdk1- and Cdk2-dependent targets (Rb, Cdc6, and PP1α) were analyzed with phospho-specific antibodies.

[4] = tested on: T2, Nc1ncnc2c1ncn2[C@@H]1O[C@H](COP(=O)(O)OP(=O)(O)OP(=O)(O)O)[C@@H](O)[C@H]1O; assay: hCMG helicase fork-unwinding (strand displacement) assay; assay type: biochemical, human; conditions: other: role: substrate
T2 construct: made in house; host or cells: High Five insect cells, baculovirus (11 viruses co-infected)
Protocol: as §1, §2, §3

[5] = tested on: T1, human CMG helicase (hCMG); assay: hCMG ATPase activity, FP ADP^2 Transcreener assay; assay type: biochemical
Protocol: The fluorescent-polarization (FP) ADP-sensing assays were performed using the Transcreener® ADP^2 FP assay kit (cat #3010-1K, Bellbrook Labs). For hCMG inhibitor screening, assays were performed at 37° C. for 1 hr in 10 μl reactions in a 384-well plate (cat. #4514, Corning) using 2 μL of hCMG (~15 fmol), 25 mM Hepes-NaOH (pH 7.5), 10 mM NaCl, 0.5 mM ATP, 10 mM magnesium acetate, 1 mM DTT, 0.1 mg/ml BSA, and DNA fork substrates. […] Selected inhibitors or samples from a chemical library were added into the reactions when conducting the screening or testing inhibitor effectiveness. The NCI Diversity Set VI chemical library was obtained from the National Cancer Institute (Bethesda, MD).
The window of sensitivity for the ADP-sensing assays is determined by setting up two 10 μL control samples without any added hCMG helicase: a Low-FP mixture (4 nM ADP Alexa Fluor-633 Tracer alone) and a High-FP mixture (4 nM ADP Alexa Fluor-633 Tracer plus patented anti-ADP^2 Antibody). The amount of ADP^2 Antibody used had to be adjusted to account for the use of 500 μM ATP in our hCMG assays, versus 10 μM ATP in enzyme reactions typically assessed with standard kits prepared by BellBrook Labs. […] This was done according to the manufacturer by performing a titration with increasing ADP^2 Antibody, fixed 4 nM ADP Alexa Fluor-633 Tracer, and 500 μM ATP to determine the ~EC80-85 for millipol (mP) changes, which determined the optimal ADP^2 Antibody concentration to use as 0.64 mg/ml (FIG. 9A). Samples are read with a Perkin Elmer Envision II plate reader with optimized Cy5 (far-red) FP-compatible mirror and cubes (cat #2100-8390, Perkin Elmer). The Low-FP sample is the least polarized and gives a low mP reading, while the High-FP sample is the most polarized and gives the highest mP reading. The difference between the Low-FP and High-FP values defines the FP assay window, which is normally in a range of 150-200 mP under ideal conditions for screening purposes. The hCMG helicase hydrolyzes ATP to ADP and decreases the mP reading within this window, with an ideal change (ΔmP) in the FP window of at least 50% to be in a readable range for inhibitor screening (as per manufacturer). Potential hCMG chemical inhibitors reverse this effect and cause the mP readings to increase.
We performed a titration with increasing and decreasing concentrations of ADP and ATP, respectively, to assess the sensitivity of the FP assay in detecting ADP production (FIG. 9B). Consistent with the stated manufacturer predictions, the assay can reliably detect 1-3% changes in ADP production (i.e., 5-15 μM ADP production) in starting concentrations of ATP of 500 μM, with a Z′ efficiency between 0.6-0.8 (determined following manufacturer protocols).
Once the hCMG enzyme reactions are complete, 10 μL of 1× Stop Solution and Detection Buffer (buffer from BellBrook Labs; containing 4 nM ADP Alexa Fluor-633 Tracer plus ADP^2 Antibody) are added to each reaction, and to the High-FP control. The Low-FP control receives 10 μL of 1× Stop Solution and Detection Buffer containing only 4 nM ADP Alexa Fluor-633 Tracer (no Antibody). Samples are incubated at 25° C. for 1 hr, then read in the plate reader. […] Plate readings from these tests of potential positive hits should be similar to that seen with the Low-FP control, or such hits may instead be false-positives.

[6] = tested on: solid tumor cell lines (NCI-60 set); conditions: cited from earlier work

T1 sequence (P49736 whole entry): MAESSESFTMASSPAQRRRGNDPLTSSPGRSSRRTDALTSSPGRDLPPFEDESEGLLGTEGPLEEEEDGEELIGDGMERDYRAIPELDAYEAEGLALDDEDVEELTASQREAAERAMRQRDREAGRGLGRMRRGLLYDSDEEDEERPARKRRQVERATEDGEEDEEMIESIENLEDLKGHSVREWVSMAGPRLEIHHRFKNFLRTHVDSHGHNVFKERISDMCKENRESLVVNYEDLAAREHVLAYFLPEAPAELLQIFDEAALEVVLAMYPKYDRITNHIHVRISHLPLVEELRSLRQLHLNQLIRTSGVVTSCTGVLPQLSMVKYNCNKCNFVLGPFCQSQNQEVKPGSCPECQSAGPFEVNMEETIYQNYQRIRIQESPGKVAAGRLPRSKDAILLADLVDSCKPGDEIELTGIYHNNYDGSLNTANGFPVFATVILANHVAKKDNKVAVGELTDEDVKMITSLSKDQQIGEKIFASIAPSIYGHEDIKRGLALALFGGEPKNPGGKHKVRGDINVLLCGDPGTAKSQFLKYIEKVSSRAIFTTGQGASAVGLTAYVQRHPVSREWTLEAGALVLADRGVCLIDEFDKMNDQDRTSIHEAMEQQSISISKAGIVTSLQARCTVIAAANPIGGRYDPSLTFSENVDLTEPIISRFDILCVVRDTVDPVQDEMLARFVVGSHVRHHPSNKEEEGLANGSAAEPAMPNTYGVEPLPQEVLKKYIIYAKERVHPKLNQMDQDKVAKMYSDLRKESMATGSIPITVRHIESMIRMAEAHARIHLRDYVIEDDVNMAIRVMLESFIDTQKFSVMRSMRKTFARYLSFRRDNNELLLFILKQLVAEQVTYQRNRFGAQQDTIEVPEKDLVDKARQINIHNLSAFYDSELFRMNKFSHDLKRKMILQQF
T1 sequence (P25205 whole entry, further chain): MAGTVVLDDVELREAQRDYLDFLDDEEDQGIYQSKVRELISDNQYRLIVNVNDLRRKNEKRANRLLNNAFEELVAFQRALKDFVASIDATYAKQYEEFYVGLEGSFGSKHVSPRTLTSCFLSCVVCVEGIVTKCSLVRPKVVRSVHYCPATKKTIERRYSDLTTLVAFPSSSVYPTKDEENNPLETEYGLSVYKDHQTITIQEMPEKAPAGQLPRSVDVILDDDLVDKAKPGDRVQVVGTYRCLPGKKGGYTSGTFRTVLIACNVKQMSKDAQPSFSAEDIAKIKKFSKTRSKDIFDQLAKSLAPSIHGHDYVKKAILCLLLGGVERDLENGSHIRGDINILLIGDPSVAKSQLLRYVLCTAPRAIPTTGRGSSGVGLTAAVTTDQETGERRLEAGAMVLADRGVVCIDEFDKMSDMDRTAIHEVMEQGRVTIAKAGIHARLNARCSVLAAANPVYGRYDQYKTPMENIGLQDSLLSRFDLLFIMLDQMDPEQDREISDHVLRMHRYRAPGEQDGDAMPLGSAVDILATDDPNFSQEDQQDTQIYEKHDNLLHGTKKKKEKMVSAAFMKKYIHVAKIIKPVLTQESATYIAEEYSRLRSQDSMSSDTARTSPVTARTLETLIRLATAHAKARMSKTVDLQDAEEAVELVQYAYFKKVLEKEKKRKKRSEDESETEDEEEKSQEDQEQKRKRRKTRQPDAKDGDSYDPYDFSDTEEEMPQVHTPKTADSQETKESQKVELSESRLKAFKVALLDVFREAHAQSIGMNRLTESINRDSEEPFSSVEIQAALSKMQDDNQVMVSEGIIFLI
T1 sequence (P33991 whole entry, further chain): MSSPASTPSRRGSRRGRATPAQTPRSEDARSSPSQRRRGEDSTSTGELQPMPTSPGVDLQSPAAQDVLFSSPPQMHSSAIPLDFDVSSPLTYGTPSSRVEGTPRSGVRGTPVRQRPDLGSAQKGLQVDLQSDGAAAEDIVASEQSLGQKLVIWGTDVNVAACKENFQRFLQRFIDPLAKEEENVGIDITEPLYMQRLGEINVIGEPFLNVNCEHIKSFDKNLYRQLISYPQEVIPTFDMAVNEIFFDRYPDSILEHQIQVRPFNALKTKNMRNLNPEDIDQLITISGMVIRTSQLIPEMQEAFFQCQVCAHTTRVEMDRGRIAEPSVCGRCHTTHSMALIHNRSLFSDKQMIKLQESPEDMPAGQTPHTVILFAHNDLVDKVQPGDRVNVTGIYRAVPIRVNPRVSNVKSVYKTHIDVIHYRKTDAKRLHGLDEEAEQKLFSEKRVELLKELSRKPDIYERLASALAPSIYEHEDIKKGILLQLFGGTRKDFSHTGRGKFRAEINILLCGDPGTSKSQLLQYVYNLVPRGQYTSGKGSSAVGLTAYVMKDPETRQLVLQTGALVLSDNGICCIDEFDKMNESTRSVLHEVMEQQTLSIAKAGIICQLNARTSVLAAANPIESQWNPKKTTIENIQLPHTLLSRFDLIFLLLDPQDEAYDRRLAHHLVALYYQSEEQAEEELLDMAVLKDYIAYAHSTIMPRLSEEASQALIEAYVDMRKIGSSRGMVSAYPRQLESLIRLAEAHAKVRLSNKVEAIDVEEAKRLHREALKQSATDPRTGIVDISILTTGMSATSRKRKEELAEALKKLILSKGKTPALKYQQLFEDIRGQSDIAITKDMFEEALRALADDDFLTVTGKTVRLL
T1 sequence (P33992 whole entry, further chain): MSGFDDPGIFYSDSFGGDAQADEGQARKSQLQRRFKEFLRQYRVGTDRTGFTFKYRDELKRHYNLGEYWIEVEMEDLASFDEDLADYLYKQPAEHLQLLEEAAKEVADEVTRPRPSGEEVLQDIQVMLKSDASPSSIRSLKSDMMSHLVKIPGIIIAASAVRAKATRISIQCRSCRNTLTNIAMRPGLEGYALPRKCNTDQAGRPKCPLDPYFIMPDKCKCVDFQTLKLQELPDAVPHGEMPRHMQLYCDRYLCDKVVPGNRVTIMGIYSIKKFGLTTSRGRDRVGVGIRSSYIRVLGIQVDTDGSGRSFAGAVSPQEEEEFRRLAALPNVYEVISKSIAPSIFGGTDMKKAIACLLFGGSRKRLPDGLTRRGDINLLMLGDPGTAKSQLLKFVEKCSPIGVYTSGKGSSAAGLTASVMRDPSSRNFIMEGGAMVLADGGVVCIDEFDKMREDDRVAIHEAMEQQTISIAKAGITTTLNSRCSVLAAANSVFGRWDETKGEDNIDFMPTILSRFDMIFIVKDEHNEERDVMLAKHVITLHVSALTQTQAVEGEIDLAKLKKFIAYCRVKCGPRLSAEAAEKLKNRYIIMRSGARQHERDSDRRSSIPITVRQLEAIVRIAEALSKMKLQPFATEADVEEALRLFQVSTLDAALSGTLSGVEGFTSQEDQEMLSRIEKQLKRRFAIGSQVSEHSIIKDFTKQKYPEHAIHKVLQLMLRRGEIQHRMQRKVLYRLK
T1 sequence (Q14566 whole entry, further chain): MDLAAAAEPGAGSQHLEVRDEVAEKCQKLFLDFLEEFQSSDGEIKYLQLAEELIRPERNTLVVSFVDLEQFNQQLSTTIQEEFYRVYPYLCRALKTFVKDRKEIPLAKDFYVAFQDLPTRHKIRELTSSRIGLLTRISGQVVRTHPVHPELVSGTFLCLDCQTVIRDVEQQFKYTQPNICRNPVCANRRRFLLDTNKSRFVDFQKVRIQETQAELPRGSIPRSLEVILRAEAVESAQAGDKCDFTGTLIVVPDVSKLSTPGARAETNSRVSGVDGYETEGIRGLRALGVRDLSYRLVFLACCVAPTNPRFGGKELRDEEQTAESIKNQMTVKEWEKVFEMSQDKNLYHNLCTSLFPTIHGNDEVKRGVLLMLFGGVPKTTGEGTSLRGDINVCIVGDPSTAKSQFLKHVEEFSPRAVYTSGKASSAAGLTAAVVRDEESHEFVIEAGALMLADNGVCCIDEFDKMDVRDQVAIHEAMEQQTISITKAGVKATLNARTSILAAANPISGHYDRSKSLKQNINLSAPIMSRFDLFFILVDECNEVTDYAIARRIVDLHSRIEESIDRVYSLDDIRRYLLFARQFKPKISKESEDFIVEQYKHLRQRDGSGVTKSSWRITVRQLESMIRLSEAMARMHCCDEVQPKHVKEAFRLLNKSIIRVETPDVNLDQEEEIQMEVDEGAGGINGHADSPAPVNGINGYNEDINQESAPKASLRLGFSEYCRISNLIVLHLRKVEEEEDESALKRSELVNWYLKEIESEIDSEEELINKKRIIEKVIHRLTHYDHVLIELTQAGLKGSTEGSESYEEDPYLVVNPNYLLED
T1 sequence (P33993 whole entry, further chain): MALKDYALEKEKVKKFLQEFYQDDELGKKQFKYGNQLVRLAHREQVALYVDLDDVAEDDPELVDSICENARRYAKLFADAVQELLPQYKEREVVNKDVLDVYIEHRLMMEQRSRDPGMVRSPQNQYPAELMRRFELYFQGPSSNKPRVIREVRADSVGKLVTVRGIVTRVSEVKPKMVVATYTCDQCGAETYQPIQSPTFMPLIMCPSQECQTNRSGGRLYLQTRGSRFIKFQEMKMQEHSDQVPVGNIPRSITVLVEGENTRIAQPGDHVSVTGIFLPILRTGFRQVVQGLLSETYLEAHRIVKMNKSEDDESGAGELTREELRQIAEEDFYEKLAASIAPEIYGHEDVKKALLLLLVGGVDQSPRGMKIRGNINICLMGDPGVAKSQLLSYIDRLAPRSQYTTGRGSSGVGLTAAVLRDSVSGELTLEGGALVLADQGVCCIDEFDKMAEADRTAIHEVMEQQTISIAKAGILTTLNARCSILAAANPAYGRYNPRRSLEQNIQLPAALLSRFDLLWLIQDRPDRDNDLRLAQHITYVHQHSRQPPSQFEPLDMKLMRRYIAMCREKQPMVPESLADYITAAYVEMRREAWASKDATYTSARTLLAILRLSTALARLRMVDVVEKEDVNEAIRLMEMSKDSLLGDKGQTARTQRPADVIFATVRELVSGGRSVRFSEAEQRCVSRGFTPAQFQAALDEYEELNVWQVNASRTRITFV

Nc1ncnc2c1ncn2[C@@H]1O[C@H](COP(=O)(O)OP(=O)(O)OP(=O)(O)O)[C@@H](O)[C@H]1O [ATP]
ATP hydrolysis rate of the human helicase ([1]; 500 μM ATP): −80 mol-ADP per minute per mol-hCMG | Km ([1]; described by others, read-out: Km for hCMG ATP hydrolysis activity): 625 µM | Vmax of the hCMG ([2]; role: substrate, inhibitor CA1 2.5 μM present): without a change in the Vmax | Km ([2]; role: substrate, no inhibitor, read-out: Km for ATP, fork-unwinding activity): 690 µM

O=C(NC1CCNCC1)c1[nH]ncc1NC(=O)c1c(Cl)cccc1Cl [AT7519]
phosphorylation of Cdk2 targets Rb, Cdc6 (S54P) and Cdk1 target PP1a [3]: blocks phosphorylation

human CMG helicase (hCMG) (Homo sapiens)
Km ([4]; inhibitor CA1 2.5 μM present): 1550 µM | Km ([4]; no inhibitor): 690 µM

CO[C@@H]1[C@@H](OC(=O)c2ccc(C)[nH]2)[C@@H](O)[C@H](Oc2ccc3c(O)c(NC(=O)c4ccc(O)c(CC=C(C)C)c4)c(=O)oc3c2Cl)OC1(C)C [clorobiocin]
inhibition of hCMG ATP hydrolysis ([5]; primary FP ATPase assay): effective nature of hCMG inhibition | hCMG helicase inhibition in secondary strand-displacement assay ([2]; 500 μM compound): effective hCMG helicase inhibitors | growth suppression of solid tumor cell lines [6]: sensitive to similar low micromolar concentrations

Nc1ncnc2c1ncn2[C@@H]1O[C@H](COP(=O)(O)OP(=O)(O)O)[C@@H](O)[C@H]1O [ADP]
ADP conversion rate by the hCMG ([5]; role: product, 15 fmol hCMG, 500 μM ATP): ~ 1.5% | production of ADP ([5]; role: product, 15 fmol hCMG, 500 μM ATP, 10 μL reaction, 1 hr): 7 to 8 µM

Reference: US20260306641A1, “HELICASE DEGRADERS” (priority 2023, published 2026)
